Test results from patent US9695155B2, “Herbicidal substituted pyrimidinyloxy benzene compounds” (E. I. DU PONT DE NEMOURS AND COMPANY, priority 2013, dated 2017).

Experiments:
wheat, winter [1] = test: Test C preemergence; format: in vivo, Triticum aestivum; settings: for Wheat plant response rating: preemergence; for Plant response rating, Wheat: Preemergence, 62 g ai/ha, scale 0 to 100, 0 no effect, 100 complete control
Procedure, shortened: (§1)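 Visual injury score versus untreated controls, 0 = no effect, 100 = complete control, taken 13 to 15 days after treatment in the greenhouse. Pre-emergence pots held loam/sand; post-emergence plants grew in sphagnum peat/vermiculite mix and were sprayed at the 1- to 4-leaf stage.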

ragweed [2] = test: Test A postemergence; format: in vivo, Ambrosia elatior
Procedure, shortened: (§2)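 Compounds in non-phytotoxic solvent with surfactant applied as soil spray preemergence, or postemergence to plants 2-10 cm at one- to two-leaf stage, in loam/sand. After approximately 10 days in greenhouse, injury rated visually versus untreated controls, 0 (no effect) to 100 (complete control).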

Italian ryegrass [3] = test: Test A preemergence; format: in vivo, Lolium multiflorum; settings: for Ryegrass, Italian plant response rating (0 to 100 scale): 125 g ai/ha
Procedure, shortened: as §2

corn [4] = test: Test A postemergence; format: in vivo, Zea mays
Procedure, shortened: as §2

wheat, winter [5] = test: Test C postemergence; format: in vivo, Triticum aestivum; settings: for Plant response rating (0 to 100), Wheat: 16 g ai/ha, 0 is no effect, 100 is complete control; for Wheat plant response rating: 31 g ai/ha; for Wheat plant response rating / Plant response rating, Wheat: scale 0 to 100 (0 no effect, 100 complete control)
Procedure, shortened: as §1

barnyardgrass = test: Test A postemergence; format: in vivo, Echinochloa crus-galli
Procedure, shortened: as §2

johnsongrass [6] = test: Test C preemergence; format: in vivo, Sorghum halepense; settings: for Johnsongrass plant response rating: preemergence; for Plant response rating, Johnsongrass: Preemergence, 62 g ai/ha, scale 0 to 100, 0 no effect, 100 complete control
Procedure, shortened: as §1

johnsongrass [7] = test: Test C postemergence; format: in vivo, Sorghum halepense; settings: for Plant response rating (0 to 100), Johnsongrass: 16 g ai/ha, 0 is no effect, 100 is complete control; for Johnsongrass plant response rating: 31 g ai/ha; for Johnsongrass plant response rating / Plant response rating, Johnsongrass: scale 0 to 100 (0 no effect, 100 complete control)
Procedure, shortened: as §1

yellow nutsedge [8] = test: Test C postemergence; format: in vivo, Cyperus esculentus; settings: for Plant response rating (0 to 100), Nutsedge, Yellow: 16 g ai/ha, 0 is no effect, 100 is complete control; for Nutsedge, Yellow plant response rating: 31 g ai/ha; for Nutsedge, Yellow plant response rating / Plant response rating, Nutsedge, Yellow: scale 0 to 100 (0 no effect, 100 complete control)
Procedure, shortened: as §1

Italian ryegrass [9] = test: Test C preemergence; format: in vivo, Lolium multiflorum; settings: for Ryegrass, Italian plant response rating: preemergence; for Plant response rating, Ryegrass, Italian: Preemergence, 62 g ai/ha, scale 0 to 100, 0 no effect, 100 complete control
Procedure, shortened: as §1

ragweed [10] = test: Test A preemergence; format: in vivo, Ambrosia elatior; settings: for Ragweed plant response rating (0 to 100 scale): 125 g ai/ha
Procedure, shortened: as §2

large (Lg) crabgrass = test: Test C postemergence; format: in vivo, Digitaria sanguinalis; settings: for Plant response rating (0 to 100), Crabgrass, Large: 16 g ai/ha, 0 is no effect, 100 is complete control; for Crabgrass, Large plant response rating: 31 g ai/ha; for Crabgrass, Large plant response rating / Plant response rating, Crabgrass, Large: scale 0 to 100 (0 no effect, 100 complete control)
Procedure, shortened: as §1

yellow nutsedge [11] = test: Test C preemergence; format: in vivo, Cyperus esculentus; settings: for Nutsedge, Yellow plant response rating: preemergence; for Plant response rating, Nutsedge, Yellow: Preemergence, 62 g ai/ha, scale 0 to 100, 0 no effect, 100 complete control
Procedure, shortened: as §1

giant foxtail = test: Test C postemergence; format: in vivo, Setaria faberii; settings: for Plant response rating (0 to 100), Foxtail, Giant: 16 g ai/ha, 0 is no effect, 100 is complete control; for Foxtail, Giant plant response rating: 31 g ai/ha; for Foxtail, Giant plant response rating / Plant response rating, Foxtail, Giant: scale 0 to 100 (0 no effect, 100 complete control)
Procedure, shortened: as §1

corn [12] = test: Test C preemergence; format: in vivo, Zea mays; settings: for Corn plant response rating: preemergence; for Plant response rating, Corn: Preemergence, 62 g ai/ha, scale 0 to 100, 0 no effect, 100 complete control
Procedure, shortened: as §1

corn [13] = test: Test C postemergence; format: in vivo, Zea mays; settings: for Plant response rating (0 to 100), Corn: 16 g ai/ha, 0 is no effect, 100 is complete control; for Corn plant response rating: 31 g ai/ha; for Corn plant response rating / Plant response rating, Corn: scale 0 to 100 (0 no effect, 100 complete control)
Procedure, shortened: as §1

[14] = 16 g ai/ha, scale 0 to 100 (0 no effect, 100 complete control)
[15] = 125 g ai/ha, scale 0 (no effect) to 100 (complete control)
[16] = 31 g ai/ha, 0 to 100 scale, 0 no effect, 100 complete control
[17] = 125 g ai/ha, 0 to 100 scale, 0 no effect, 100 complete control
[18] = 31 g ai/ha, 0 to 100 scale where 0 is no effect and 100 is complete control, visual, approximately 10 days
[19] = postemergence, visual rating, 13 to 15 days
[20] = 125 g ai/ha, postemergence, visual rating
[21] = Postemergence, 62 g ai/ha, 13 to 15 days
[22] = 500 g ai/ha, 0 to 100 scale where 0 is no effect and 100 is complete control

FC(F)Oc1cnn(-c2c(Cl)cccc2Oc2ncc(Cl)cn2)c1 [Compound 258]
Wheat plant response rating (wheat, winter [1]; [14]): 0
Wheat plant response rating (wheat, winter [1]; [15]): 25
Plant response rating, Wheat (wheat, winter [1]): 5
Plant response rating, Ragweed (ragweed [2]; [16]): 10
Plant response rating, Ragweed (ragweed [2]; [17]): 50
Plant response rating, Ryegrass, Italian (Italian ryegrass [3]; [18]): 0
Ryegrass, Italian plant response rating (0 to 100 scale) (Italian ryegrass [3]): 10
Plant response rating, Corn (corn [4]; [16]): 10
Plant response rating, Corn (corn [4]; [17]): 40
Plant response rating (0 to 100), Wheat (wheat, winter [5]; postemergence): 0
Wheat plant response rating (wheat, winter [5]; [19]): 0
Plant response rating, Wheat (wheat, winter [5]; [20]): 5
Plant response rating, Wheat (wheat, winter [5]; [21]): 5
Plant response rating, Barnyardgrass (barnyardgrass; [16]): 10
Plant response rating, Barnyardgrass (barnyardgrass; [17]): 90
Johnsongrass plant response rating (johnsongrass [6]; [14]): 5
Johnsongrass plant response rating (johnsongrass [6]; [15]): 90
Plant response rating, Johnsongrass (johnsongrass [6]): 75
Plant response rating (0 to 100), Johnsongrass (johnsongrass [7]; postemergence): 0
Johnsongrass plant response rating (johnsongrass [7]; [19]): 5
Plant response rating, Johnsongrass (johnsongrass [7]; [20]): 5
Plant response rating, Johnsongrass (johnsongrass [7]; [21]): 5
Plant response rating (0 to 100), Nutsedge, Yellow (yellow nutsedge [8]; postemergence): 0
Nutsedge, Yellow plant response rating (yellow nutsedge [8]; [19]): 0
Plant response rating, Nutsedge, Yellow (yellow nutsedge [8]; [20]): 5
Plant response rating, Nutsedge, Yellow (yellow nutsedge [8]; [21]): 5
Ryegrass, Italian plant response rating (Italian ryegrass [9]; [14]): 0
Ryegrass, Italian plant response rating (Italian ryegrass [9]; [15]): 70
Plant response rating, Ryegrass, Italian (Italian ryegrass [9]): 25
Plant response rating, Ragweed (ragweed [10]; [18]): 0
Ragweed plant response rating (0 to 100 scale) (ragweed [10]): 40
Plant response rating (0 to 100), Crabgrass, Large (large (Lg) crabgrass; postemergence): 5
Crabgrass, Large plant response rating (large (Lg) crabgrass; [19]): 5
Plant response rating, Crabgrass, Large (large (Lg) crabgrass; [20]): 15
Plant response rating, Crabgrass, Large (large (Lg) crabgrass; [21]): 10
Nutsedge, Yellow plant response rating (yellow nutsedge [11]; [14]): 5
Nutsedge, Yellow plant response rating (yellow nutsedge [11]; [15]): 100
Plant response rating, Nutsedge, Yellow (yellow nutsedge [11]): 95
Plant response rating (0 to 100), Foxtail, Giant (giant foxtail; postemergence): 5
Foxtail, Giant plant response rating (giant foxtail; [19]): 20
Plant response rating, Foxtail, Giant (giant foxtail; [20]): 45
Plant response rating, Foxtail, Giant (giant foxtail; [21]): 25
Corn plant response rating (corn [12]; [14]): 0
Corn plant response rating (corn [12]; [15]): 65
Plant response rating, Corn (corn [12]): 45
Plant response rating (0 to 100), Corn (corn [13]; postemergence): 5
Corn plant response rating (corn [13]; [19]): 5
Plant response rating, Corn (corn [13]; [20]): 20
Plant response rating, Corn (corn [13]; [21]): 10

N#Cc1cn(-c2c(C#N)cccc2Oc2ncc(Cl)cn2)nn1 [Compound 273]
Wheat plant response rating (wheat, winter [1]; [14]): 0
Wheat plant response rating (wheat, winter [1]; [15]): 5
Plant response rating, Wheat (wheat, winter [1]): 0
Plant response rating, Ragweed (ragweed [2]; [17]): 40
Plant response rating, Ragweed (ragweed [2]; [22]): 90
Ryegrass, Italian plant response rating (0 to 100 scale) (Italian ryegrass [3]): 20
Ryegrass, Italian plant response rating (Italian ryegrass [3]; [22]): 40
Plant response rating, Corn (corn [4]; [17]): 40
Plant response rating, Corn (corn [4]; [22]): 50
Plant response rating (0 to 100), Wheat (wheat, winter [5]; postemergence): 0
Wheat plant response rating (wheat, winter [5]; [19]): 0
Plant response rating, Wheat (wheat, winter [5]; [20]): 10
Plant response rating, Wheat (wheat, winter [5]; [21]): 0
Plant response rating, Barnyardgrass (barnyardgrass; [17]): 70
Plant response rating, Barnyardgrass (barnyardgrass; [22]): 90
Johnsongrass plant response rating (johnsongrass [6]; [14]): 0
Johnsongrass plant response rating (johnsongrass [6]; [15]): 80
Plant response rating, Johnsongrass (johnsongrass [6]): 55
Plant response rating (0 to 100), Johnsongrass (johnsongrass [7]; postemergence): 0
Johnsongrass plant response rating (johnsongrass [7]; [19]): 0
Plant response rating, Johnsongrass (johnsongrass [7]; [20]): 5
Plant response rating, Johnsongrass (johnsongrass [7]; [21]): 5
Plant response rating (0 to 100), Nutsedge, Yellow (yellow nutsedge [8]; postemergence): 10
Nutsedge, Yellow plant response rating (yellow nutsedge [8]; [19]): 5
Plant response rating, Nutsedge, Yellow (yellow nutsedge [8]; [20]): 25
Plant response rating, Nutsedge, Yellow (yellow nutsedge [8]; [21]): 5
Ryegrass, Italian plant response rating (Italian ryegrass [9]; [14]): 0
Ryegrass, Italian plant response rating (Italian ryegrass [9]; [15]): 60
Plant response rating, Ryegrass, Italian (Italian ryegrass [9]): 0
Ragweed plant response rating (0 to 100 scale) (ragweed [10]): 70
Ragweed plant response rating (ragweed [10]; [22]): 80
Plant response rating (0 to 100), Crabgrass, Large (large (Lg) crabgrass; postemergence): 5
Crabgrass, Large plant response rating (large (Lg) crabgrass; [19]): 5
Plant response rating, Crabgrass, Large (large (Lg) crabgrass; [20]): 10
Plant response rating, Crabgrass, Large (large (Lg) crabgrass; [21]): 10
Nutsedge, Yellow plant response rating (yellow nutsedge [11]; [14]): 0
Nutsedge, Yellow plant response rating (yellow nutsedge [11]; [15]): 35
Plant response rating, Nutsedge, Yellow (yellow nutsedge [11]): 5
Plant response rating (0 to 100), Foxtail, Giant (giant foxtail; postemergence): 10
Foxtail, Giant plant response rating (giant foxtail; [19]): 40
Plant response rating, Foxtail, Giant (giant foxtail; [20]): 20
Plant response rating, Foxtail, Giant (giant foxtail; [21]): 10
Corn plant response rating (corn [12]; [14]): 0
Corn plant response rating (corn [12]; [15]): 35
Plant response rating, Corn (corn [12]): 45
Plant response rating (0 to 100), Corn (corn [13]; postemergence): 5
Corn plant response rating (corn [13]; [19]): 5
Plant response rating, Corn (corn [13]; [20]): 5
Plant response rating, Corn (corn [13]; [21]): 5
